The source of these data is patent US6321750A, “Condom lubricants with zinc salts as anti-viral additives” (priority 1999, dated 2001).

The subject of data set [1] is forearm. In words: Irritation test on forearm / skin. Format: in vivo, human. As to conditions: in vivo. The method, then: Zinc acetate was purchased from Pfaltz and Bauer (Waterbury, Connecticut). About 0.5 grams were mixed with several drops of distilled water at room temperature. […] The aqueous mixture was rubbed into an area about 3 cm in diameter on the forearm of […] and caused no irritation. Subsequently, about 0.5 grams of the salt were dissolved in a few drops of distilled water, then 10 ml K-Y Lubricating Jelly (sold by Johnson and Johnson, New Brunswick, N.J.) was added to form a gel mixture containing about 5% zinc acetate (w/v). This commercially available mixture contains purified water, hydroxyethyl-cellulose as a thickening agent, glycerin as a lubricant, glucono-delta-lactate to prevent crystallization, chlorhexidine gluconate as a preservative, and sodium hydroxide to reduce the acidity.

The test system of data set [2] is genitals (both persons, during intercourse). Nature of the data set: Irritation test of lubricant during intercourse / human volunteers. The class given is in vivo. As to conditions: human, in vivo. The source says:
Subsequently, the gel formulation was applied topically and used as a sexual lubricant during intercourse. Both people wiped off the excess with a tissue after intercourse, but neither person showered or washed off the lubricant until the following day. It caused no irritation to either person.

For data set [3] the following is noted: cited from earlier work; for ionization rate: in aqueous solution; for Reported pK values: values below 2 refer to release of a single carboxy anion.
Data set [4] concerns several cell lines.
A short description of data set [5]: Acidity tests: pH of 5% w/v zinc salt solutions. As to conditions: for pH of solution (rounded) / pH of solution: 5% w/v in distilled deionized water; for pH of solution: 0.05 subtracted from meter reading, approximately accurate.
Data set [6] deals with male genitals. Nature of the data set: Irritation test on male genitals / urethra. As to conditions: in vivo. Here is the method: In all examples, the test subjects were a monogamous married couple, free of genital herpes and all other known sexually transmitted viruses.
The mixture of zinc acetate in K-Y Lubricating Jelly was tested on the male genitals, passively at first and then with active rubbing.
About 0.5 grams were dissolved in several drops of distilled water and tested on the forearm and genitals.

In data set [7] the test system is vagina. In words: Irritation test in shallow region of the vagina (volunteer). Format: in vivo, human. As to conditions: human, in vivo.
For data set [8], the system named is genitals (both persons, during intercourse). As to conditions: cited from earlier work.
Data set [9] relates to H-9 lymphocytes. Nature of the data set: Toxicity to lymphocytes. Format: cell-based. Conditions: at the concentrations of interest. The method, then: In a first set of tests, 20 mg of zinc acetate powder (ZnAc, MW 183.4) was mixed in 1 ml RPMI cell culture medium (Whittaker Corp.). This 2% (w/v) salt mixture contained 7 mg/ml elemental Zn. […] Therefore, a small quantity of HCl was added until the mixture became clear; the pH was about 5.5. The Zn concentration was reduced by half (and the pH was raised somewhat) when an equal volume (1 ml) of cell-free high-titer HIV-1 viral stock was added. The zinc/virus mixture was stirred and incubated for 2 hours at 37° C. (i.e., normal body temperature).
Following this first incubation step, the zinc/virus mixtures were diluted at 1:10, 1:30, and 1:100 ratios using culture medium, and aliquots were added to equal volumes of culture media containing H-9 lymphocytes that had been pretreated overnight with 2 μg/ml Polybreen. The lymphocyte mixtures were incubated for three hours at 37° C.; zinc concentrations during this step were 180, 60, and 18 μg/ml for the 1:10, 1:30, and 1:100 dilutions.
A 2 ml aliquot from each dilution was mixed with an equal volume of 3% ZnAc dissolved in sterile distilled water; after mixing, the zinc concentration was 5.3 mg/ml Zn. These mixtures were incubated for 2 hours, then diluted with culture medium at 1:30, 1:100, and 1:1000 to reduce the toxicity of the zinc to lymphocytes. Four ml of lymphocytes were mixed with 4 ml of each zinc/virus mixture. The zinc/virus/cell mixtures were incubated at 37° C. for 3 hours; zinc concentrations were 88, 27, and 2.7 μg/ml in the 30, 100, and 1000 dilutions.

Data set [10] relates to sperm cells. Conditions: undiluted semen; Eliasson 1971, Paz et al 1977; cited from earlier work.
Data set [11] concerns herpes simplex virus (HSV). Nature of the data set: Herpes simplex virus plaque assay on CV-1 cells. As to conditions: in vitro tests.
Procedure: The first step of this assay models what happens inside the vaginal cavity. In this part of the assay, the candidate anti-viral agent (such as a zinc salt) was mixed and incubated for a relatively brief period with HIV particles. […] In subsequent tests using herpes viruses (which are much easier to work with than HIV), a range of first-stage incubation times were tested, ranging from 2 hours to only 5 minutes.
Susceptible lymphocyte cells were then added to this mixture, and a second incubation step was carried out for a number of days (20 days or more, when HIV was tested; 3 days, when herpes viruses were tested in plaque assays) to determine whether zinc-treated or untreated viruses would infect the lymphocytes.
After those toxicity tests had been evaluated, the viral inhibition tests were done on CV-1 cells, an immortalized cell line originally from a monkey kidney, which is highly and reliably susceptible to herpes virus infection, and which is widely used in in vitro tests on herpes viruses.
Tests were also carried out using a range of zinc salt concentrations, from 50 mM down to 5 mM, using constant 2 hour incubation periods.

Where two headings read alike, the source gives them in different places.

For `[Cl-].[Cl-].[Zn+2]` [Zinc chloride], the “burning, forearm” value in data set [1] was “immediately caused a burning sensation”. Also, the “irritation in initial tests” value in data set [2] is on record as “significant irritation”. The ionization rate in data set [3] is reported as ~100%.

Turning to `O=C[O-].O=C[O-].[Zn+2]` [Zinc formate], in [3] (in water), the “Reported pK values: pK1” value is listed as 0.6 and the “Reported pK values: pK2” value was 0.95.

Consider `O=C(O)CO.O=C(O)CO.[Zn]` [Zinc glycolate], for which the “Reported pK values” in [3] (in water) is reported as 1.92.

With `CC(O)C(=O)[O-].CC(O)C(=O)[O-].[Zn+2]` (stereo not shown) [Zinc lactate], the irritation during intercourse entry in [2] is reported as “no irritation of any sort”. The MCC in data set [4] was ~200 mM. The “Reported pK values” in data set [3] (in water) is 1.86. In [5], the “pH of solution (rounded)” value is on record as “about 6.2” and the pH of solution came out at 6.16.

For `CCC(=O)[O-].CCC(=O)[O-].[Zn+2]` [Zinc propionate], in data set [1], the “burning and irritation to the skin” value was “substantial amount of burning and irritation to the skin”; the “irritation, forearm” value is “no irritation”. Besides, in data set [6], the “irritation, male genital skin” value was “no irritation”; the “irritation, male genitals” value was “did not cause any irritation”; the “irritation, urethra” value was “substantial irritation”. In data set [7], the “irritation, vagina” value is “vaginal irritation” and the “irritation, vagina / female genitals” value was “no irritation”. Besides, the “irritation of gel / genital lubricant formulations” value in data set [2] was “did not cause any irritation”. Also, the “Reported pK values” in [3] (in water) is recorded as 1.01.

Consider `O=S(=O)([O-])[O-].[Zn+2]` [Zinc sulfate], for which the “irritation, forearm” value in [1] was “did not cause any irritation”. Moreover, in data set [6], the “irritation, male genital skin” value was “did not cause any irritation” and the “irritation, urethra” value is “did not cause any irritation”. The “irritation, person, passive test” value in [7] is on record as “tingling, burning sensation”. In data set [2], the “irritation in initial tests” value is given as “significant irritation” and the “irritation, human volunteers” value is recorded as “no noticeable irritation”. In [3], the ionization rate is ~100%. Moreover, in data set [8] (human, in vivo), the “irritation (prior art / known)” value was “substantial burning and irritation in most people”. In addition, the “acidity relative to zinc acetate or lactate solution” value in data set [5] (5% solutions) is “about 4 times”. Also, the “pH drop relative to zinc acetate or lactate solution” value in data set [5] (5% solutions, from 6.2 to 5.6) was determined as 0.6. Further, in data set [5], the “pH of solution (rounded)” value was “about 5.6” and the pH of solution came to 5.58.

Take `[Zn+2]` [zinc]: the “effect on physical irritation caused by nonoxynol” value in [2] is listed as “can actually reduce the physical irritation that is caused by nonoxynol”. In data set [9], the toxicity to lymphocytes entry is “toxic to lymphocytes”. In data set [10], the “effect on sperm respiratory activity and motility” value was “suppresses the respiratory activity and motility of sperm cells”.

In the case of Zinc butyrate, the “Reported pK values” in data set [3] (in water) is on record as 1.00.

Regarding Zinc gluconate, the “irritation, forearm” value in data set [1] was “no irritation”. Also, the “irritation, male genitals” value in [6] is on record as “no irritation”. In data set [7], the “irritation, vagina / female genitals” value is recorded as “no irritation”. Besides, the abrasion during intercourse entry in data set [2] was “no abrasion was noticeable”. The MCC in [4] was ~200 mM. The “Reported pK values” in data set [3] (in water) was 1.70. In addition, the “anti-viral effect against herpes viruses” value in [11] is recorded as “clearly effective in preventing infection by herpes viruses”.

Consider Zinc glycerate, for which the “Reported pK values” in [3] (in water) was 1.80.

In the case of nonoxynol, the “irritation (prior art / known)” value in data set [8] (literature or general knowledge) is recorded as “cause irritation in many users”.

octoxynol: the “irritation (prior art / known)” value in [8] (human, in vivo) is reported as “cause irritation in many users”.
